Experimental data: patent US20240408169A1 (priority 2023, published 2024)
Read-outs that look alike come from different tables or passages of the source. *1 amine or outer side, *2 acyl side, *3 side chain or, on linkers, in order; H or OH if unused. Where a SMILES comes first, the peptide text is derived from it. Bridges are numbered along the chain shown (N, C = ends). [ ]: non-standard residue; d: D form. The star is where a group is joined. X205 = CC(C)C(=O)N1[C@@H]2COC[C@H]1C=C(c1ccc(F)cc1C[C@@H](C(=O)[*:2])N(C)[*:1])C2; X127 = CN([C@@H](Cc1cc(F)ccc1-c1cnn(S(=O)(=O)C2CC2)c1)C(=O)[*:2])[*:1]; X186 = CN([C@@H](Cc1cc(Cl)ccc1-c1ccc(N2CCOCC2)cn1)C(=O)[*:2])[*:1]; X178 = CN([C@@H](Cc1cc(F)ccc1-c1cnn(C2CCOC2)c1)C(=O)[*:2])[*:1]; X190 = CC(=O)N1CC(Oc2ncc(Cl)cc2C[C@@H](C(=O)[*:2])N(C)[*:1])C1; X158 = CCOc1ccc(-c2ccc(Cl)cc2C[C@@H](C(=O)[*:2])N(C)[*:1])cn1; X193 = CN([C@@H](Cc1cc(Cl)ccc1-c1cnc2nonc2c1)C(=O)[*:2])[*:1]; NMehhhLys(Me) = CN([C@@H](CCCCCCCN(C)[*:3])C(=O)[*:2])[*:1]; X180 = CN([C@@H](Cc1cc(F)ccc1-c1cnn2c1CCC2)C(=O)[*:2])[*:1]; X22 = CN([C@@H](Cc1cc(Cl)ccc1-c1cnn(C)c1)C(=O)[*:2])[*:1]; X44 = Cc1nnc(-c2ccc(Cl)cc2C[C@@H](C(=O)[*:2])N(C)[*:1])o1; X154 = Cc1oncc1-c1ccc(Cl)cc1C[C@@H](C(=O)[*:2])N(C)[*:1]; NMe(hhhLys) = CN([C@@H](CCCCCCCN[*:3])C(=O)[*:2])[*:1]; NMe3Pal(2-OMe,5-Cl) = CN[C@@H](Cc1cc(Cl)cnc1OC)C(=O)O; Cyclobutanecarbonyl(1-CF3) = O=C(C1(C(F)(F)F)CCC1)*; cBuCO(3,3-F2-1-CF3) = O=C(C1(C(F)(F)F)CC(F)(F)C1)*; X161 = Cc1ccc(F)cc1C[C@@H](C(=O)[*:2])N(C)[*:1]; Pro(trans-4-F) = O=C(O)[C@@H]1C[C@@H](F)CN1; Pivaloyl(3,3,3-F3) = CC(C)(C(=O)*)C(F)(F)F; Pro(4,4-F2) = O=C(O)[C@@H]1CC(F)(F)CN1; Gly(cPr) = N[C@H](C(=O)O)C1CC1

Experiments:
CyclinA2/CDK2 = target: T1, CyclinA2/CDK2 (Homo sapiens, UniProt P20248); test: Fluorescence Polarization (FP) competitive binding assay, Cyclin A2/Cdk2;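 further: plates equilibrated two hours at room temperature before polarization reading, IC50 fitted from eight-concentration compound titration curves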
T1 construct: purchased CRELUX Protein Services

CyclinB1/CDK1 = target: T2, CyclinB1/CDK1 (Homo sapiens, UniProt P14635); test: Fluorescence Polarization (FP) competitive binding assay, Cyclin B1/Cdk1;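 further: fluorescence polarization read after equilibration at room temperature, with IC50 taken from serially diluted dose-response curves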
T2 construct: purchased Eurofins, discovery 14-450

CyclinE1/CDK2 = target: T3, CyclinE1/CDK2 (Homo sapiens, UniProt P24864); test: Fluorescence Polarization (FP) competitive binding assay, Cyclin E1/Cdk2;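 further: readings taken after two-hour equilibration at room temperature in HEPES buffer with NaCl, DTT, NP-40 and BSA, IC50 fitted from eight-concentration serial dilution series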
T3 construct: purchased Eurofins, discovery 14-475

NCI-H1048 cells = test: MTT proliferation assay, NCI-H1048; format: cell-based; details: 5 days compound exposure, 1:3 serial dilution starting at 10 μM;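 further: Dose-response in 96-well plates over 8 or 10 concentration points, with exposure spanning 3-4 cell doublings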
OVCAR3 cells = test: MTT proliferation assay, OVCAR3; format: cell-based; details: 5 days compound exposure, 1:3 serial dilution starting at 10 μM;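 further: compound given as an 8- or 10-point series, one day after plating, with exposure covering roughly 3-4 cell doublings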
[1] = 8 nM Cyclin A2/Cdk2, 2 nM FAM probe, average of 2-3 independent experiments, read-out: Cyclin A FP IC50
[2] = 10 nM Cyclin B1/Cdk1, 2 nM FAM probe; average of 2-3 independent experiments; read-out: Cyclin B FP IC50
[3] = 10 nM Cyclin E1/Cdk2, 2 nM FAM probe, average of 2-3 independent experiments, read-out: Cyclin E FP IC50
[4] = read-out: Cyclin B FP IC50; 10 nM Cyclin B1/Cdk1, 2 nM FAM probe; average of 2-3 independent experiments

Row | SMILES | IC50 (CyclinA2/CDK2; [1]) [nM] | IC50 (CyclinB1/CDK1; [2]) [nM] | IC50 (CyclinE1/CDK2; [3]) [nM] | GI50 (NCI-H1048 cells) [nM] | GI50 (OVCAR3 cells) [nM] | IC50 (CyclinA2/CDK2) [nM] | IC50 (CyclinB1/CDK1; [4]) [nM] | IC50 (CyclinE1/CDK2) [nM]
1 | CC(C)C[C@@H]1NC(=O)[C@@H](N(C)C(=O)[C@@H](NC(=O)[C@@H]2C[C@@H](F)CN2C(=O)C2(C(F)(F)F)CC(F)(F)C2)C2CC2)CCCCCCCN(C)C(=O)[C@H](Cc2cc(F)ccc2-c2cnn(C3CCOC3)c2)N(C)C1=O (stereo partly drawn) [Example 94] ({cBuCO(3,3-F2-1-CF3)}-[Pro(trans-4-F)][Gly(cPr)][NMehhhLys(Me)]L[X178]; lactam 3-C) | 20 | 20 | 180 | 10 | 10 |  |  | 
2 | Cc1oncc1-c1ccc(Cl)cc1C[C@H]1C(=O)N(C)CCCCCCC[C@H](N(C)C(=O)[C@@H](NC(=O)[C@@H]2C[C@@H](F)CN2C(=O)C2(C(F)(F)F)CC(F)(F)C2)C2CC2)C(=O)N[C@@H](CC(C)C)C(=O)N1C [Example 212] ({cBuCO(3,3-F2-1-CF3)}-[Pro(trans-4-F)][Gly(cPr)][NMehhhLys(Me)]L[X154]; lactam 3-C) |  |  |  | 80 | 80 | 70 | 20 | 4160
3 | CC(C)C[C@@H]1NC(=O)[C@@H](N(C)C(=O)[C@@H](NC(=O)[C@@H]2C[C@@H](F)CN2C(=O)C2(C(F)(F)F)CC(F)(F)C2)C2CC2)CCCCCCCN(C)C(=O)[C@H](Cc2cc(Cl)ccc2-c2cnc3nonc3c2)N(C)C1=O [Example 171] ({cBuCO(3,3-F2-1-CF3)}-[Pro(trans-4-F)][Gly(cPr)][NMehhhLys(Me)]L[X193]; lactam 3-C) | 80 | 20 | 4210 | 150 | 210 |  |  | 
4 | CC(C)C[C@@H]1NC(=O)[C@@H](N(C)C(=O)[C@@H](NC(=O)[C@@H]2CC(F)(F)CN2C(=O)C2(C(F)(F)F)CC(F)(F)C2)C2CC2)CCCCCCCN(C)C(=O)[C@H](Cc2cc(Cl)ccc2-c2cnn(C)c2)N(C)C1=O [Example 343] ({cBuCO(3,3-F2-1-CF3)}-[Pro(4,4-F2)][Gly(cPr)][NMehhhLys(Me)]L[X22]; lactam 3-C) | 20 | 20 | 670 | 10 | 10 |  |  | 
5 | CC(C)C[C@@H]1NC(=O)[C@@H](N(C)C(=O)[C@@H](NC(=O)[C@@H]2C[C@@H](F)CN2C(=O)C2(C(F)(F)F)CC(F)(F)C2)C2CC2)CCC=CCCCNC(=O)[C@H](Cc2cc(Cl)ccc2-c2cnn(S(C)(=O)=O)c2)N(C)C1=O [Example 273, (2S,4R)—N—((S)-2-(((3S,6S,9S)-3-(5-chloro-2-(1-(methylsulfonyl)-1H-pyrazol-4-yl)benzyl)-6-isobutyl-4-methyl-2,5,8-trioxo-1,4,7-triazacyclohexadec-12-en-9-yl)(methyl)amino)-1-cyclopropyl-2-oxoethyl)-1-(3,3-difluoro-1-(trifluoromethyl)cyclobutane-1-carbonyl)-4-fluoropyrrolidine-2-carboxamide] | 50 | 20 | 1940 | 30 | 40 |  |  | 
6 | CC[C@H](NC(=O)[C@@H]1C[C@@H](F)CN1C(=O)C1(C(F)(F)F)CC1)C(=O)N[C@H]1CC=CCCCCNC(=O)[C@H](Cc2cc(Cl)ccc2Cl)N(C)C(=O)[C@H](CC(C)C)NC1=O [Example 2] | 110 | 20 | 100 | 380 | 410 |  |  | 
7 | CC(=O)N1CC(Oc2ncc(Cl)cc2C[C@H]2C(=O)N(C)CCCCCCC[C@H](N(C)C(=O)[C@@H](NC(=O)[C@@H]3C[C@@H](F)CN3C(=O)C3(C(F)(F)F)CC(F)(F)C3)C3CC3)C(=O)N[C@@H](CC(C)C)C(=O)N2C)C1 [Example 324] ({cBuCO(3,3-F2-1-CF3)}-[Pro(trans-4-F)][Gly(cPr)][NMehhhLys(Me)]L[X190]; lactam 3-C) | 60 | 20 | 520 | 40 | 80 |  |  | 
8 | CC(C)C[C@@H]1NC(=O)[C@@H](N(C)C(=O)[C@@H](NC(=O)[C@@H]2C[C@@H](F)CN2C(=O)C2(C(F)(F)F)CC(F)(F)C2)C2CC2)CCCCCCCNC(=O)[C@H](Cc2cc(F)ccc2-c2cnn3c2CCC3)N(C)C1=O [Example 214] ({cBuCO(3,3-F2-1-CF3)}-[Pro(trans-4-F)][Gly(cPr)][NMe(hhhLys)]L[X180]; lactam 3-C) |  |  |  | 10 | 10 | 50 | 20 | 500
9 | CC(C)C[C@@H]1NC(=O)[C@@H](N(C)C(=O)[C@H](C)NC(=O)[C@@H]2C[C@@H](F)CN2C(=O)C2(C(F)(F)F)CC(F)(F)C2)CC=CCCCCNC(=O)[C@H](Cc2cc(Cl)ccc2Cl)N(C)C1=O [Example 54] | 390 | 30 | 3390 | 470 | 700 |  |  | 
10 | CCOc1ccc(-c2ccc(Cl)cc2C[C@H]2C(=O)N(C)CCCCCCC[C@H](N(C)C(=O)[C@@H](NC(=O)[C@@H]3C[C@@H](F)CN3C(=O)C3(C(F)(F)F)CC(F)(F)C3)C3CC3)C(=O)N[C@@H](CC(C)C)C(=O)N2C)cn1 [Example 182] ({cBuCO(3,3-F2-1-CF3)}-[Pro(trans-4-F)][Gly(cPr)][NMehhhLys(Me)]L[X158]; lactam 3-C) | 20 | 20 | 1170 | 60 | 130 |  |  | 
11 | COc1ncc(Cl)cc1C[C@H]1C(=O)N(C)CCCCCCC[C@H](N(C)C(=O)[C@@H](NC(=O)[C@@H]2C[C@@H](F)CN2C(=O)C(C)(C)C(F)(F)F)C2CC2)C(=O)N[C@@H](CC(C)C)C(=O)N1C [Example 268] ({Pivaloyl(3,3,3-F3)}-[Pro(trans-4-F)][Gly(cPr)][NMehhhLys(Me)]L[NMe3Pal(2-OMe,5-Cl)]; lactam 3-C) | 60 | 20 | 100 | 20 | 10 |  |  | 
12 | Cc1nnc(-c2ccc(Cl)cc2C[C@H]2C(=O)NCCCCCCC[C@H](N(C)C(=O)[C@@H](NC(=O)[C@@H]3C[C@@H](F)CN3C(=O)C3(C(F)(F)F)CCC3)C3CC3)C(=O)N[C@@H](CC(C)C)C(=O)N2C)o1 [Example 161] ({Cyclobutanecarbonyl(1-CF3)}-[Pro(trans-4-F)][Gly(cPr)][NMe(hhhLys)]L[X44]; lactam 3-C) | 20 | 20 | 120 | 20 | 20 |  |  | 
13 | CC(C)C[C@@H]1NC(=O)[C@@H](N(C)C(=O)[C@@H](NC(=O)[C@@H]2C[C@@H](F)CN2C(=O)C2(C(F)(F)F)CC(F)(F)C2)C2CC2)CCCCCCCN(C)C(=O)[C@H](Cc2cc(F)ccc2C2=C[C@@H]3COC[C@H](C2)N3C(=O)C(C)C)N(C)C1=O [Example 329] ({cBuCO(3,3-F2-1-CF3)}-[Pro(trans-4-F)][Gly(cPr)][NMehhhLys(Me)]L[X205]; lactam 3-C) | 20 | 20 | 250 | 10 | 10 |  |  | 
14 | CC(C)C[C@@H]1NC(=O)[C@@H](N(C)C(=O)[C@@H](NC(=O)[C@@H]2C[C@@H](F)CN2C(=O)C2(C(F)(F)F)CC(F)(F)C2)C2CC2)CCCCCCCN(C)C(=O)[C@H](Cc2cc(Cl)ccc2-c2ccc(N3CCOCC3)cn2)N(C)C1=O [Example 382] ({cBuCO(3,3-F2-1-CF3)}-[Pro(trans-4-F)][Gly(cPr)][NMehhhLys(Me)]L[X186]; lactam 3-C) | 40 | 20 | 2490 | 90 | 40 |  |  | 
15 | Cc1ccc(F)cc1C[C@H]1C(=O)NCCCCCCC[C@H](N(C)C(=O)[C@@H](NC(=O)[C@@H]2C[C@@H](F)CN2C(=O)C2(C(F)(F)F)CC(F)(F)C2)C2CC2)C(=O)N[C@@H](CC(C)C)C(=O)N1C [Example 264] ({cBuCO(3,3-F2-1-CF3)}-[Pro(trans-4-F)][Gly(cPr)][NMe(hhhLys)]L[X161]; lactam 3-C) | 90 | 20 | 290 | 40 | 30 |  |  | 
16 | CC(C)C[C@@H]1NC(=O)[C@@H](N(C)C(=O)[C@@H](NC(=O)[C@@H]2CCCN2C(=O)C2(C(F)(F)F)CC(F)(F)C2)C2CC2)CCCCCCCN(C)C(=O)[C@H](Cc2cc(Cl)ccc2-c2cnn(C)c2)N(C)C1=O [Example 77] ({cBuCO(3,3-F2-1-CF3)}-P[Gly(cPr)][NMehhhLys(Me)]L[X22]; lactam 3-C) | 20 | 20 | 1710 | 60 | 70 |  |  | 
17 | Cc1nnc(-c2ccc(Cl)cc2C[C@H]2C(=O)NCCCCC=CC[C@H](N(C)C(=O)[C@@H](NC(=O)[C@@H]3C[C@@H](F)CN3C(=O)C3(C(F)(F)F)CC(F)(F)C3)C3CC3)C(=O)N[C@@H](CC(C)C)C(=O)N2C)o1 (single isomer, unassigned) [Example 118-P2] | 60 | 20 | 300 | 50 | 50 |  |  | 
18 | CC(C)C[C@@H]1NC(=O)[C@@H](N(C)C(=O)[C@@H](NC(=O)[C@@H]2C[C@@H](F)CN2C(=O)C2(C(F)(F)F)CC(F)(F)C2)C2CC2)CCCCCCCNC(=O)[C@H](Cc2cc(F)ccc2-c2cnn(S(=O)(=O)C3CC3)c2)N(C)C1=O [Example 281] ({cBuCO(3,3-F2-1-CF3)}-[Pro(trans-4-F)][Gly(cPr)][NMe(hhhLys)]L[X127]; lactam 3-C) | 40 | 20 | 530 | 10 | 20 |  |  | 
